Results published in patent US12331026B2 (NiKang Therapeutics, Inc., priority 2022, dated 2025).

Target: T1, CDK2 (Homo sapiens, UniProt P24941)
T1 construct: endogenous in cells; host or cells: OVCAR3 cells
Assay: Phospho-RB measurement in OVCAR3 cells (HTRF phospho-RB S807/811)
Type: cell-based
Conditions: phosphorylation of RB protein at S807/811, HTRF, 24 h compound treatment, 0.3 to 10,000 nM, read-out: pRb (uM)
Summary of the method: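 IC50 values come from four-parameter logistic fits of the DMSO-normalised 665/620 nm TR-FRET ratio for phospho-RB (S807/811). Antibody detection ran 4 h at room temperature.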

Compound | IC50 [µM]
O=S1(=O)CC2(CC(Nc3nccc(-c4sc(N5C6CCC5CN(Cc5ccccc5)C6)nc4-c4cccc(NS(=O)(=O)c5c(F)cccc5F)c4F)n3)C2)C1 [Example 40, N-(3-(2-(3-benzyl-3,8-diazabicyclo[3.2.1]octan-8-yl)-5-(2-((2,2-dioxido-2-thiaspiro[3.3]heptan-6-yl)amino)pyrimidin-4-yl)thiazol-4-yl)-2-fluorophenyl)-2,6-difluorobenzenesulfonamide] | 1.7
CN1CC2CC(C1)N2c1nc(-c2cccc(NS(=O)(=O)c3c(F)cccc3F)c2F)c(-c2ccnc(NC3CC4(C3)CS(=O)(=O)C4)n2)s1 [Example 22, N-(3-(5-(2-((2,2-dioxido-2-thiaspiro[3.3]heptan-6-yl)amino)pyrimidin-4-yl)-2-(3-methyl-3,6-diazabicyclo[3.1.1]heptan-6-yl)thiazol-4-yl)-2-fluorophenyl)-2,6-difluorobenzenesulfonamide] | 0.44
